PubChem BioAssay AID1984 (Sanford-Burnham Center for Chemical Genomics, 2009)
The source made the active and inactive calls.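 Rule for the calls: active = EGFP signal decrease of at least 30% at 10 µM or well 3 SD below plate mean, unless failing retest; inactive = the rest, including hits failing retest or dose response.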

Biological target: p/CIP-EGFP fusion (nuclear receptor coactivator 3, mouse) (UniProt Q05BA5)
Experiment: compounds lowering mouse p/CIP (NCOA3) protein levels – fluorescence, F442A cells, EGFP fusion, primary screen (AID 1984);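 note: dose response run in MEF cells carrying p/CIP-EGFP rather than F442A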
Conditions: 16 h

p/CIP-EGFP fusion (nuclear receptor coactivator 3, mouse), sequence (Q05BA5 1-1403): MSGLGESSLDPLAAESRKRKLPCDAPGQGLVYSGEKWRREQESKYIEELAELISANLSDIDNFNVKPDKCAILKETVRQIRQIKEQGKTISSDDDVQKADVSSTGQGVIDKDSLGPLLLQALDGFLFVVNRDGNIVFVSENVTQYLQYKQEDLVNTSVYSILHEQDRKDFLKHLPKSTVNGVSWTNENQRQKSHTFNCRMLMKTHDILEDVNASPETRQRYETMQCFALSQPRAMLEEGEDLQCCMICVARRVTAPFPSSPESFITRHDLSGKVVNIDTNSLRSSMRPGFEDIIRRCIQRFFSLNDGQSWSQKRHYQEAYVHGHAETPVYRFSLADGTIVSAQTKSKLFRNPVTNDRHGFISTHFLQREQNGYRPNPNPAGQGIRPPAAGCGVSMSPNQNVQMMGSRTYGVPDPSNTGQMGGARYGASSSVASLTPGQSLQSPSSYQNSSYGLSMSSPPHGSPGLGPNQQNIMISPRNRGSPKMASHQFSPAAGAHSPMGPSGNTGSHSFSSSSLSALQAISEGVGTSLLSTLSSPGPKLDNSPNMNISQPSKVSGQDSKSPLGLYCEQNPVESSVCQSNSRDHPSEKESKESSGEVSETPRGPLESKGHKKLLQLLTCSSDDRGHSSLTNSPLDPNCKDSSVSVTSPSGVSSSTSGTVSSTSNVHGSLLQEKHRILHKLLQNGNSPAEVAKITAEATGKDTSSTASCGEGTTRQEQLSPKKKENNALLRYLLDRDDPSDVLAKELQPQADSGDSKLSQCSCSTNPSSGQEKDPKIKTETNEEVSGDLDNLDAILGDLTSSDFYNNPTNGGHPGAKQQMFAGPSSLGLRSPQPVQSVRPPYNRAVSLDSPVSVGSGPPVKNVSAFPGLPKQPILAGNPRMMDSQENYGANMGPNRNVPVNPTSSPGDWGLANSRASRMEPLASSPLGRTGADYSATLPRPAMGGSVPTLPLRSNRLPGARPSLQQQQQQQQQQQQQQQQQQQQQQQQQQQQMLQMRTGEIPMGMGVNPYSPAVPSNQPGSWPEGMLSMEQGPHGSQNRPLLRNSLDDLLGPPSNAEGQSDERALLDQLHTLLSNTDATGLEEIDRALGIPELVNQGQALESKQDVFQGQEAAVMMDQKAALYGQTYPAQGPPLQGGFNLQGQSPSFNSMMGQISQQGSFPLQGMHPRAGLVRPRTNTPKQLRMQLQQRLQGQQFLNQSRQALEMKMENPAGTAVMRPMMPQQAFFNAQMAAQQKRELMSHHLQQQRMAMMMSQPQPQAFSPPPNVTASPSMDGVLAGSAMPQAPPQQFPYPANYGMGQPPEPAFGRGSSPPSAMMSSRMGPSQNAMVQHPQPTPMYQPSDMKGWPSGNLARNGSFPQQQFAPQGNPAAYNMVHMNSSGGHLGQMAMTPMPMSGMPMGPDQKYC

Compound: CC(C)(C)c1cc[n+](C2=C([O-])c3ccccc3C(=O)/C2=N\S(=O)(=O)c2cccs2)cc1
- IC50: 27 µM

Compound: COc1ccc(CS(=O)/C(Cl)=C(/Cl)C(=O)Nc2ccc(OC)nc2)cc1 (centres undefined)
- IC50: 16.6 µM

Compound: CC1CCN(S(=O)(=O)c2ccc3c(c2)C(=NO)c2cc(S(=O)(=O)N4CCC(C)CC4)ccc2-3)CC1
- IC50: 2.3 µM

Compound: O=C1C(Nc2ccc(O)cc2)=C/C(=N/S(=O)(=O)c2cccs2)c2ccccc21
- IC50: 2.69 µM

Compound: O=C1C(Nc2ccccc2)=C/C(=N/S(=O)(=O)c2cccs2)c2ccccc21
- IC50: 3.77 µM

Compound: COc1ccc(NC(=O)/C(Cl)=C(/Cl)S(=O)Cc2ccc(Cl)cc2)cn1 (centres undefined)
- IC50: inactive

Compound: Nc1ccc2c(c1)C(=O)C(=O)c1ccccc1-2
- IC50: 14.6 µM

Compound: Cc1oc2c(c1C(=O)NCc1cccnc1)C(=O)c1ccccc1C2=O
- IC50: 4.3 µM

Compound: CCOC(=O)c1c(C)[nH]c2c1-c1ccccc1C(=O)C2=O
- IC50: 3.43 µM

Compound: CCCc1nc2c(=O)n(C)c(=O)nc-2n(C)n1
- IC50: 5 µM

Compound: O=C1C(Cl)=C(NCCN2CCCCC2)C(=O)c2ccccc21
- IC50: 14.8 µM

Compound: Cc1ccccc1NC1=C/C(=N\S(=O)(=O)c2cccs2)c2ccccc2C1=O
- IC50: 16.4 µM

Compound: CCOC(=O)N=Nc1c2ccccc2c2nc3no[nH]c3nc12
- IC50: 18.8 µM

Compound: Cc1ccc(NC2=C/C(=N\S(=O)(=O)c3cccs3)c3ccccc3C2=O)c(C)c1
- IC50: 19.4 µM
